{"source": "patent US11938121B2", "about": "“Treatment of infections and biofilm formation using a cellulose synthase inhibitor” (Purdue Research Foundation, priority 2020, dated 2024)", "key": {"[1]": {"target": "T1, GFP-CESA6c (central cytosolic domain of AtCESA6) (Arabidopsis thaliana, UniProt Q94JQ6)", "T1 construct": "made in house; host or cells: E. coli", "T1 sequence (Q94JQ6 322-868)": "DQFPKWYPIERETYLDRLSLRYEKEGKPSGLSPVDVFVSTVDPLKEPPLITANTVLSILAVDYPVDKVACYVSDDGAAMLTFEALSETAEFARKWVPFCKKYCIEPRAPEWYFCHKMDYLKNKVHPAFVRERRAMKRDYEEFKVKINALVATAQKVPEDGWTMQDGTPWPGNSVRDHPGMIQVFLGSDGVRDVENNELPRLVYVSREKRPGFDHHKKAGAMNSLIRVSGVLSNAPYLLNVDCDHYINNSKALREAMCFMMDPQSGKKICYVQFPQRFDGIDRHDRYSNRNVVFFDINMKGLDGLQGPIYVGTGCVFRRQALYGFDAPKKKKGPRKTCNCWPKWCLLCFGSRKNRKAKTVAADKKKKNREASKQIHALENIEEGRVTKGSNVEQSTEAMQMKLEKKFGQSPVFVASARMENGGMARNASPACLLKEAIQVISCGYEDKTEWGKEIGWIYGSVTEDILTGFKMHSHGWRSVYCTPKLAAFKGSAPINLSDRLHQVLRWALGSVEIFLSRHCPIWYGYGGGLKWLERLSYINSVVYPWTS", "assay": "MST assay with GFP-CESA6c", "format": "binding", "excerpt": "To obtain the central cytosolic domain of AtCESA6 for the MST assay, we inserted the GFP coding sequence into the SacI and PstI restriction enzyme sites of the pRSF-Duet-1 vector (Huang et al., 2020). The GFP coding sequence was amplified from the pUBN-GFP-DEST vector. The sequence encoding the central cytosolic domain of CESA6 (CESA6c) was amplified from Col-0 cDNA and fused with GFP at the C-terminus. CESA6c construct was used as a template for creating CESA6c^P595S construct by site-directed mutagenesis. Protein purification was performed as previously described (Huang et al., 2020).\nMST assays were carried out using a Monolith NT.115 (NanoTemper) machine at the Chemical Genomics Facility at Purdue University. […] The ES20-1 was dissolved in DMSO, and the final concentration of DMSO was 5% (vol/vol). MST standard capillaries were used to load the samples into the MST instrument. Triplicate reactions were performed for each test. The MST data were processed using MO. Affinity Analysis Version 2.3 software."}, "[2]": {"test_system": "AtCESA6 (cesa6 alleles es20r1-es20r15)", "assay": "Root growth of EMS-induced cesa6 mutants es20r1-es20r15 on ES20 analogs", "format": "in vivo, Arabidopsis thaliana", "details": "compared with wild-type/control plants", "excerpt": "A subset of active ES20 analogs likely target the catalytic domain of AtCESA6. […] Since ES20 and the nine active ES20 analogs share highly similar structures, we reasoned whether these active analogs target AtCESA6 as well. We therefore examined the growth of es20r1-es20r15 plants in the presence of nine active ES20 analogs compared to wild-type plants.\nTo test the inhibitory effects of different chemicals on plant growth, wild-type Arabidopsis Col-0 plants were used. The seeds of plants used for growth assays or live cell imaging were sequentially sterilized with 50% bleach and 75% ethanol. […] To quantify the inhibitory effects of different ES20 active analogs on the root growth of Arabidopsis wildtype, EMS mutants, and transgenic plants expressing mutated AtCESA6 in prc1-1 background, sterilized Col-0, mutants, and transgenic plants seeds were sown on gridded Petri plates containing ½-strength MS medium supplemented with different concentrations of ES20 analogs. […] The plates were scanned using an Epson Perfection V550 scanner after 7 days of growth, and the root lengths of plants were quantified using ImageJ software. […] The Petri dishes were scanned, and hypocotyl length was measured using ImageJ. Transgenic plants expressing fluorescence-tagged PIN2, PIP2a, HDEL, VHA-a1, and GOT1p were as reported previously (Xu and Scheres, Plant Cell, 2005, 17, 525-536)."}, "rice (Oryza sativa)": {"test_system": "rice (Oryza sativa)", "assay": "Rice seedling root growth", "format": "in vivo", "details": "20 μM", "excerpt": "ES20 has broad spectrum inhibitory effect on the growth of both dicotyledonous and monocotyledonous plants (Huang and Zhang, Plant Signal Behav. 2020, 15, 1780039). We tested whether ES20-1 has stronger inhibitory effect on the growth of monocotyledon plants than ES20. We grew rice (Oryza sativa) and maize (Zea mays) seedlings on the same concentrations of ES20 and ES20-1 and compared their effects on growth."}, "Arabidopsis Col-0": {"test_system": "Arabidopsis Col-0", "assay": "Arabidopsis Col-0 root growth and root swelling assay", "format": "in vivo, Arabidopsis thaliana", "details": "same dosage as ES20", "experimental": "During the primary screening, we sowed Col-0 seeds on solid growth medium supplemented with 0.1% DMSO or 3 mg/L of different compounds with molar concentrations ranging from 5-10 μM. After 7 days of growth, we imaged the seedlings and evaluated the inhibitory effect of each chemical. Because disrupting cellulose biosynthesis by treating plants with a cellulose biosynthesis inhibitor or introducing mutations in the cellulose biosynthesis pathway often leads to root growth inhibition, root swelling, as well as ectopic lignin accumulation (Arioli et al., Science 1998, 279, 717-720; Huang et al., 2020), we first evaluated the ability of the compounds to inhibit root growth and cause root swelling. […] We grew wildtype seedlings on growth medium supplemented with DMSO (0.1%) or different concentrations of ES20 analogs for 7 days and quantified the crystalline cellulose content in root cell wall. […]\nTo test the inhibitory effects of different chemicals on plant growth, wild-type Arabidopsis Col-0 plants were used. […] To quantify the inhibitory effects of different ES20 active analogs on the root growth of Arabidopsis wildtype, EMS mutants, and transgenic plants expressing mutated AtCESA6 in prc1-1 background, sterilized Col-0, mutants, and transgenic plants seeds were sown on gridded Petri plates containing ½-strength MS medium supplemented with different concentrations of ES20 analogs. […]"}}}
{"smiles": "Cc1ccccc1C(=O)NNC(=S)NC(=O)c1ccccc1", "note": "[ES20-1]", "values": [{"measurement": "interaction with CESA6c", "setting": "[1]; 100 nM GFP-CESA6c", "value": "interacted"}, {"measurement": "relative binding affinity to CESA6c", "setting": "[1]; MST", "value": "may have a higher binding affinity to CESA6c than ES20"}, {"measurement": "sensitivity of es20r1-es20r15 mutants in growth", "setting": "[2]", "value": "All 15 mutants, which show reduced sensitivity to ES20, also showed reduced sensitivity"}, {"measurement": "rice root growth inhibition", "setting": "rice (Oryza sativa); 6-day-old seedlings", "value": "could inhibit the root growth"}, {"measurement": "degree of rice root growth inhibition compared with ES20", "setting": "rice (Oryza sativa); same dosage", "value": "much stronger than that of the same dosage of ES20"}, {"measurement": "root growth inhibition compared with ES20", "setting": "Arabidopsis Col-0", "value": "more strongly inhibited root growth than ES20"}]}
